Experimental data reported in paper PMC12040169 (PLOS Biology, 2025).

Assay: in vitro
Settings: human, hela cells, % viability
Compound `COC(=O)CCCC(=O)n1c(=O)n(Cc2ccc(S(C)(=O)=O)cc2)c2ccccc21` [CBK106538] has a viability at 28.5 h, 10 µM of 105%.
For `COc1ccc(Cn2c(=O)n(S(=O)(=O)c3ccc(C)cc3)c3ccccc32)cc1` [CBK106550], the viability at 28.5 h, 10 µM was 95.1%.
With `COc1ccc(Cn2c(=O)n(C(=O)CCc3cccc(OC)c3)c3ccccc32)cc1` [CBK106557] the viability at 28.5 h, 10 µM was 113%.
With `COc1ccc(Cn2c(=O)n(S(=O)(=O)c3cccc(-c4nnc(C)o4)c3)c3ccccc32)cc1` [CBK106558] the viability at 28.5 h, 10 µM was 89.8%.
`CC(C)S(=O)(=O)n1c(=O)n(CC(=O)c2csc3ccccc23)c2ccccc21` [CBK106559] gave a viability at 28.5 h, 10 µM of 99.8%.
With `COc1cccc(CCC(=O)n2ccn(CCCOc3ccccc3)c2=O)c1` [CBK106565] the viability at 28.5 h, 10 µM was 104%.
Work on `Cc1ccccc1-n1ccn(S(=O)(=O)c2ccccc2)c1=O` [CBK106567] yielded a viability at 28.5 h, 10 µM of 86.7%.
`Cc1ccccc1-n1ccn(C(=O)CCC2CCCC2)c1=O` [CBK106571] gave a viability at 28.5 h, 10 µM of 106%.
`Cc1ccccc1-n1ccn(C(=O)CCCOc2ccc(Cl)cc2)c1=O` [CBK106573] gave a viability at 28.5 h, 10 µM of 88.5%.
`CS(=O)(=O)c1ccccc1C(=O)n1ccn(-c2cccc(C(F)(F)F)c2)c1=O` [CBK106584] showed a viability at 28.5 h, 10 µM of 91.1%.
`O=c1n(-c2cccc(C(F)(F)F)c2)ccn1S(=O)(=O)c1ccc(N2CCOCC2)nc1` [CBK106590] gave a viability at 28.5 h, 10 µM of 104%.
`Cc1nnc(-c2cccc(S(=O)(=O)n3ccn(-c4cccc(C(F)(F)F)c4)c3=O)c2)o1` [CBK106592] gave a viability at 28.5 h, 10 µM of 91.9%.
For `Cc1nn(C)c(C)c1S(=O)(=O)n1ccn(-c2cccc(C(F)(F)F)c2)c1=O` [CBK106593], the viability at 28.5 h, 10 µM was 98.7%.
`COC(=O)c1ccc(S(=O)(=O)n2ccn(-c3cccc(C(F)(F)F)c3)c2=O)n1C` [CBK106594] gave a viability at 28.5 h, 10 µM of 90.1%.
`COc1ccc(-n2ccn(C(=O)CCC3CCCC3)c2=O)cc1` [CBK106595] showed a viability at 28.5 h, 10 µM of 90.4%.
In the case of `COc1cccc(CCC(=O)n2ccn(-c3ccc(N(C)C)cc3)c2=O)c1` [CBK106609], the viability at 28.5 h, 10 µM is reported as 99%.
For `O=C(CCC1CCCC1)n1ccn(CCc2cccs2)c1=O` [CBK106611], the viability at 28.5 h, 10 µM was 97.6%.
`COC(=O)CCCC(=O)n1ccn(CCc2cccs2)c1=O` [CBK106612] showed a viability at 28.5 h, 10 µM of 92%.
In the case of `O=c1n(C(c2ccccc2)c2ccccc2)ccn1S(=O)(=O)c1cccc(Cl)c1` [CBK106615], the viability at 28.5 h, 10 µM is reported as 91.5%.
Work on `O=C(CCC1CCCC1)n1ccn(C(c2ccccc2)c2ccccc2)c1=O` [CBK106619] yielded a viability at 28.5 h, 10 µM of 103%.
Work on `COc1ccc(S(=O)(=O)n2ccn(C(c3ccccc3)c3ccccc3)c2=O)cc1OC` [CBK106621] yielded a viability at 28.5 h, 10 µM of 89.1%.
With `O=C(CCC1CCCC1)n1ccn(-c2ccc3c(c2)OCO3)c1=O` [CBK106631] the viability at 28.5 h, 10 µM was 101%.
Work on `CCCc1ccc(S(=O)(=O)n2ccn(-c3ccc4c(c3)OCO4)c2=O)cc1` [CBK106634] yielded a viability at 28.5 h, 10 µM of 94.6%.
Compound `CS(=O)(=O)c1ccccc1C(=O)n1ccn(-c2ccc(Oc3ccccc3)cc2)c1=O` [CBK106647] has a viability at 28.5 h, 10 µM of 80.8%.
Compound `c1ccc(-c2nccnc2OCCc2cccs2)cc1` [CBK106673] has a viability at 28.5 h, 10 µM of 103%.
`CC(=O)Nc1ccc(CCOc2nccnc2-c2ccccc2)cc1` [CBK106683] gave a viability at 28.5 h, 10 µM of 96.3%.
Work on `c1ccc(COc2nccnc2-c2ccccc2)cc1` [CBK106686] yielded a viability at 28.5 h, 10 µM of 92.2%.
With `O=C1CCC(=O)N1CCOc1nccnc1-c1ccc2c(c1)OCO2` [CBK106698] the viability at 28.5 h, 10 µM was 92.3%.
Work on `c1cnc(-c2ccc3c(c2)OCO3)c(OC2CCCCC2)n1` [CBK106706] yielded a viability at 28.5 h, 10 µM of 92.4%.
In the case of `CC(C)CCOc1nccnc1-c1ccc2c(c1)OCO2` [CBK106711], the viability at 28.5 h, 10 µM is reported as 104%.
Compound `COc1ncc(-c2nccnc2OC)c(OC)n1` [CBK106744] has a viability at 28.5 h, 10 µM of 94.2%.
Work on `COc1ncc(-c2nccnc2OCCn2cnc3c2c(=O)n(C)c(=O)n3C)c(OC)n1` [CBK106746] yielded a viability at 28.5 h, 10 µM of 87.3%.
`COc1ncc(-c2nccnc2Oc2cccc(NC(C)=O)c2)c(OC)n1` [CBK106747] showed a viability at 28.5 h, 10 µM of 89.6%.
For `COc1ncc(-c2nccnc2OCCOc2ccccc2)c(OC)n1` [CBK106752], the viability at 28.5 h, 10 µM was 91.1%.
With `COc1ncc(-c2nccnc2OCC2COc3ccccc3O2)c(OC)n1` (stereo not shown) [CBK106754] the viability at 28.5 h, 10 µM was 102%.
`CCCCOc1nccnc1-c1cnc(OC)nc1OC` [CBK106756] gave a viability at 28.5 h, 10 µM of 98.8%.
`COc1cccc(Oc2nccnc2-c2ccsc2)c1` [CBK106762] gave a viability at 28.5 h, 10 µM of 92.1%.
`c1cnc(-c2ccsc2)c(OC2CCCCC2)n1` [CBK106764] gave a viability at 28.5 h, 10 µM of 97.6%.
Work on `O=C1NCCN1CCOc1nccnc1-c1ccsc1` [CBK106766] yielded a viability at 28.5 h, 10 µM of 93.4%.
In the case of `c1csc(COc2nccnc2-c2ccsc2)c1` [CBK106770], the viability at 28.5 h, 10 µM is reported as 100%.
For `c1ccn(CCOc2nccnc2-c2ccsc2)c1` [CBK106772], the viability at 28.5 h, 10 µM was 94.4%.
`COc1ccc(CCOc2nccnc2-c2ccsc2)cc1` [CBK106775] showed a viability at 28.5 h, 10 µM of 72%.
Work on `COc1nccnc1-c1cc2ccccc2s1` [CBK106781] yielded a viability at 28.5 h, 10 µM of 87.7%.
For `c1csc(COc2nccnc2-c2cc3ccccc3s2)c1` [CBK106786], the viability at 28.5 h, 10 µM was 99.5%.
With `CSc1ccc(-c2nccnc2OC(c2ccccc2)c2ccccc2)cc1` [CBK106797] the viability at 28.5 h, 10 µM was 90.2%.
Compound `CSc1ccc(-c2nccnc2OCCC(C)C)cc1` [CBK106802] has a viability at 28.5 h, 10 µM of 113%.
`COC(=O)COc1nccnc1-c1ccc(SC)cc1` [CBK106806] showed a viability at 28.5 h, 10 µM of 107%.
In the case of `COc1ccccc1-c1nccnc1OCCc1c[nH]c2ccccc12` [CBK106807], the viability at 28.5 h, 10 µM is reported as 87.7%.
Work on `COc1ccccc1-c1nccnc1OC(c1ccccc1)c1ccccc1` [CBK106813] yielded a viability at 28.5 h, 10 µM of 93.8%.
Compound `COc1ccccc1-c1nccnc1OCCc1ccc(NC(C)=O)cc1` [CBK106815] has a viability at 28.5 h, 10 µM of 115%.
Work on `FC(F)(F)Oc1ccc(-c2nccnc2OCC2COc3ccccc3O2)cc1` (stereo not shown) [CBK106845] yielded a viability at 28.5 h, 10 µM of 97.7%.
In the case of `COC(=O)COc1nccnc1-c1ccc(OC(F)(F)F)cc1` [CBK106849], the viability at 28.5 h, 10 µM is reported as 90.4%.
In the case of `COc1nccnc1-c1ccc(C)c(C)c1` [CBK106853], the viability at 28.5 h, 10 µM is reported as 88.7%.
`Cc1ccc(-c2nccnc2OCc2ccccc2)cc1C` [CBK106861] gave a viability at 28.5 h, 10 µM of 90.8%.
Work on `Cc1ccc(-c2nccnc2OCc2ccco2)cc1C` [CBK106863] yielded a viability at 28.5 h, 10 µM of 90.2%.
`Cc1ccc(-c2nccnc2OCCOc2ccccc2)cc1C` [CBK106865] showed a viability at 28.5 h, 10 µM of 90.8%.
Work on `CCCCOc1nccnc1-c1ccc(C)c(C)c1` [CBK106870] yielded a viability at 28.5 h, 10 µM of 95.1%.
With `COC(=O)COc1nccnc1-c1ccc(C)c(C)c1` [CBK106871] the viability at 28.5 h, 10 µM was 83.3%.
`C(=C\c1nccnc1OCCc1cccs1)/c1ccccc1` [CBK106873] showed a viability at 28.5 h, 10 µM of 101%.
`COc1nccnc1/C=C/c1ccccc1` [CBK106876] gave a viability at 28.5 h, 10 µM of 115%.
In the case of `COc1cccc(Oc2nccnc2/C=C/c2ccccc2)c1` [CBK106877], the viability at 28.5 h, 10 µM is reported as 107%.
`C(=C\c1nccnc1OC(c1ccccc1)c1ccccc1)/c1ccccc1` [CBK106878] showed a viability at 28.5 h, 10 µM of 99.1%.
With `C(=C\c1nccnc1OCCOc1ccccc1)/c1ccccc1` [CBK106885] the viability at 28.5 h, 10 µM was 91.6%.
In the case of `CC(C)N(CCOc1nccnc1/C=C/c1ccccc1)C(C)C` [CBK106889], the viability at 28.5 h, 10 µM is reported as 96%.
`CCCC/C=C\c1nccnc1OCCn1cccc1` [CBK106891] gave a viability at 28.5 h, 10 µM of 104%.
`O=C1CCCN1CCOc1nccnc1-c1ccc(F)cc1` [CBK106895] gave a viability at 28.5 h, 10 µM of 98.7%.
For `Fc1ccc(-c2nccnc2OCc2ccc3c(c2)OCO3)cc1` [CBK106896], the viability at 28.5 h, 10 µM was 93.3%.
